# Source: patent US10787452B2 (Vertex Pharmaceuticals Incorporated, priority 2012, dated 2020)
# Test system: HCT116 colorectal cancer cells
# Assay: Cisplatin sensitization assay (96 h cell viability MTS);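 note: compound concentration needed to lower the Cisplatin-alone IC50 by a set fold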
# Assay type: cell-based
# Settings: 96 h MTS, compound plus Cisplatin
# Outline: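 Viability was measured by MTS after 96 h co-exposure of HCT116 colorectal cells to a full-matrix dilution grid of compound and cisplatin (2-fold steps, highest final concentration 10 μM, added together). Plates were kept at 37 °C in 5% CO2, and the MTS reagent was incubated for 1 h before reading.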
row,Structure (SMILES),Cisplatin Sensitization Assay
1,"C[C@H]1CN(C(=O)C2CCN(c3c(F)cncc3NC(=O)c3c(N)nn4cc(F)cnc34)CC2)CCN1C [I-G-47, (S)-2-amino-N-(4-(4-(3,4-dimethylpiperazine-1-carbonyl)piperidin-1-yl)-5-fluoropyridin-3-yl)-6-fluoropyrazolo[1,5-a]pyrimidine-3-carboxamide]",+++ (Compounds with a Cisplatin sensitization value of <0.02 μM are marked with “+++.”)
2,"CC1(C)CN(c2ccncc2NC(=O)c2c(N)nn3cc(F)cnc23)CCS1(=O)=O [I-N-252, 2-amino-N-(4-(2,2-dimethyl-1,1-dioxidothiomorpholino)pyridin-3-yl)-6-fluoropyrazolo[1,5-a]pyrimidine-3-carboxamide]",+++ (Compounds with a Cisplatin sensitization value of <0.02 μM are marked with “+++.”)
3,"Nc1nn2cc(Cl)cnc2c1C(=O)Nc1cnccc1N1CCC(N2CCOCC2)CC1 [I-N-104, 2-amino-6-chloro-N-(4-(4-morpholinopiperidin-1-yl)pyridin-3-yl)pyrazolo[1,5-a]pyrimidine-3-carboxamide]",+++ (Compounds with a Cisplatin sensitization value of <0.02 μM are marked with “+++.”)
4,"Nc1nn2cc(F)cnc2c1C(=O)Nc1cnccc1-c1ccccc1 [I-C-5, 2-amino-6-fluoro-N-(4-phenylpyridin-3-yl)pyrazolo[1,5-a]pyrimidine-3-carboxamide]",+++ (Compounds with a Cisplatin sensitization value of <0.02 μM are marked with “+++.”)
5,"Nc1nn2cc(F)cnc2c1C(=O)Nc1cncc(F)c1N1CCC(C(=O)N2CC3(COC3)C2)CC1 [I-G-14, N-(4-(4-(2-oxa-6-azaspiro[3.3]heptane-6-carbonyl)piperidin-1-yl)-5-fluoropyridin-3-yl)-2-amino-6-fluoropyrazolo[1,5-a]pyrimidine-3-carboxamide]",+++ (Compounds with a Cisplatin sensitization value of <0.02 μM are marked with “+++.”)
6,"CC(C)(O)CN1CCN(c2c(F)cncc2NC(=O)c2c(N)nn3cc(F)cnc23)CC1 [I-N-139, 2-amino-6-fluoro-N-(5-fluoro-4-(4-(2-hydroxy-2-methylpropyl)piperazin-1-yl)pyridin-3-yl)pyrazolo[1,5-a]pyrimidine-3-carboxamide]",+++ (Compounds with a Cisplatin sensitization value of <0.02 μM are marked with “+++.”)
7,CNCCCN(C)C(=O)C1CCN(c2c(F)cncc2NC(=O)c2c(N)nn3cc(F)cnc23)CC1 [I-G-17],+ (Compounds with a Cisplatin sensitization value >0.2 μM but <5 μM are marked with “+.”)
8,"N#CCc1cnc2c(C(=O)Nc3cnccc3N3CCOC(CN)C3)c(N)nn2c1 (stereo not drawn) [I-N-90, 2-amino-N-(4-(2-(aminomethyl)morpholino)pyridin-3-yl)-6-(cyanomethyl)pyrazolo[1,5-a]pyrimidine-3-carboxamide]",+ (Compounds with a Cisplatin sensitization value >0.2 μM but <5 μM are marked with “+.”)
9,"Nc1nn2cc(F)cnc2c1C(=O)Nc1cncc(C2CC2)c1N1CCN([C@H]2CCOC2)CC1 [I-N-120, (S)-2-amino-N-(5-cyclopropyl-4-(4-(tetrahydrofuran-3-yl)piperazin-1-yl)pyridin-3-yl)-6-fluoropyrazolo[1,5-a]pyrimidine-3-carboxamide]",+++ (Compounds with a Cisplatin sensitization value of <0.02 μM are marked with “+++.”)
10,"CC1(S(C)(=O)=O)CCN(c2ccncc2NC(=O)c2c(N)nn3cc(F)cnc23)CC1 [I-N-243, 2-amino-6-fluoro-N-(4-(4-methyl-4-(methylsulfonyl)piperidin-1-yl)pyridin-3-yl)pyrazolo[1,5-a]pyrimidine-3-carboxamide]",+++ (Compounds with a Cisplatin sensitization value of <0.02 μM are marked with “+++.”)
11,"Nc1nn2cc(Cl)cnc2c1C(=O)Nc1cnccc1OC1CCCOC1 (stereo not drawn) [I-O-65, 2-amino-6-chloro-N-(4-((tetrahydro-2H-pyran-3-yl)oxy)pyridin-3-yl)pyrazolo[1,5-a]pyrimidine-3-carboxamide]",+++ (Compounds with a Cisplatin sensitization value of <0.02 μM are marked with “+++.”)
12,"Nc1nn2cc(Cl)cnc2c1C(=O)Nc1cnccc1N1CCN(C2CCC2)CC1 [I-N-48, 2-amino-6-chloro-N-(4-(4-cyclobutylpiperazin-1-yl)pyridin-3-yl)pyrazolo[1,5-a]pyrimidine-3-carboxamide]",++ (Compounds with a Cisplatin sensitization value >0.02 μM but <0.2 μM are marked with “++.”)
13,"CN1CCN(c2c(F)cncc2NC(=O)c2c(N)nn3cc(Cl)cnc23)CC1 [I-N-14, 2-amino-6-chloro-N-(5-fluoro-4-(4-methylpiperazin-1-yl)pyridin-3-yl)pyrazolo[1,5-a]pyrimidine-3-carboxamide]",+++ (Compounds with a Cisplatin sensitization value of <0.02 μM are marked with “+++.”)
14,"Cc1nn(C)cc1-c1ccncc1NC(=O)c1c(N)nn2cc(F)cnc12 [I-C-63, 2-amino-N-(4-(1,3-dimethyl-1H-pyrazol-4-yl)pyridin-3-yl)-6-fluoropyrazolo[1,5-a]pyrimidine-3-carboxamide]",+++ (Compounds with a Cisplatin sensitization value of <0.02 μM are marked with “+++.”)
15,"Nc1nn2cc(F)cnc2c1C(=O)Nc1cncc(F)c1N1CCC(C(=O)N2CC(O)C2)CC1 [I-G-41, 2-amino-6-fluoro-N-(5-fluoro-4-(4-(3-hydroxyazetidine-1-carbonyl)piperidin-1-yl)pyridin-3-yl)pyrazolo[1,5-a]pyrimidine-3-carboxamide]",+++ (Compounds with a Cisplatin sensitization value of <0.02 μM are marked with “+++.”)
16,"CN(C)C(=O)C1CCCN(c2ccncc2NC(=O)c2c(N)nn3cc(F)cnc23)C1 (stereo not drawn) [I-N-290, 2-amino-N-(4-(3-(dimethylcarbamoyl)piperidin-1-yl)pyridin-3-yl)-6-fluoropyrazolo[1,5-a]pyrimidine-3-carboxamide]",++ (Compounds with a Cisplatin sensitization value >0.02 μM but <0.2 μM are marked with “++.”)
17,"CN(C)CCNC(=O)C1CCN(c2c(F)cncc2NC(=O)c2c(N)nn3cc(F)cnc23)CC1 [I-G-30, 2-amino-N-(4-(4-((2-(dimethylamino)ethyl)carbamoyl)piperidin-1-yl)-5-fluoropyridin-3-yl)-6-fluoropyrazolo[1,5-a]pyrimidine-3-carboxamide]",+++ (Compounds with a Cisplatin sensitization value of <0.02 μM are marked with “+++.”)
18,"CN1CCN(CC2CCN(c3c(F)cncc3NC(=O)c3c(N)nn4cc(F)cnc34)CC2)CC1 [I-N-150, 2-amino-6-fluoro-N-(5-fluoro-4-(4-((4-methylpiperazin-1-yl)methyl)piperidin-1-yl)pyridin-3-yl)pyrazolo[1,5-a]pyrimidine-3-carboxamide]",+++ (Compounds with a Cisplatin sensitization value of <0.02 μM are marked with “+++.”)
19,"Nc1nn2cc(F)cnc2c1C(=O)Nc1cncc(F)c1N1CCC(C(=O)N2CCN3CCC2C3)CC1 (stereo not drawn) [I-G-46, N-(4-(4-(1,4-diazabicyclo[3.2.1]octane-4-carbonyl)piperidin-1-yl)-5-fluoropyridin-3-yl)-2-amino-6-fluoropyrazolo[1,5-a]pyrimidine-3-carboxamide]",+++ (Compounds with a Cisplatin sensitization value of <0.02 μM are marked with “+++.”)
20,"Cc1ccncc1NC(=O)c1c(N)nn2cc(F)cnc12 [I-C-4, 2-amino-6-fluoro-N-(4-methylpyridin-3-yl)pyrazolo[1,5-a]pyrimidine-3-carboxamide]",++ (Compounds with a Cisplatin sensitization value >0.02 μM but <0.2 μM are marked with “++.”)
21,"Nc1nn2cc(F)cnc2c1C(=O)Nc1cncc(Cl)c1N1CCN2CCN(C3COC3)CC2C1 (stereo not drawn) [I-N-38, 2-amino-N-(5-chloro-4-(8-(oxetan-3-yl)hexahydro-1H-pyrazino[1,2-a]pyrazin-2(6H)-yl)pyridin-3-yl)-6-fluoropyrazolo[1,5-a]pyrimidine-3-carboxamide]",++ (Compounds with a Cisplatin sensitization value >0.02 μM but <0.2 μM are marked with “++.”)
22,"N#CCc1cnc2c(C(=O)Nc3cnccc3N3CCNCC3)c(N)nn2c1 [I-N-89, 2-amino-6-(cyanomethyl)-N-(4-(piperazin-1-yl)pyridin-3-yl)pyrazolo[1,5-a]pyrimidine-3-carboxamide]",++ (Compounds with a Cisplatin sensitization value >0.02 μM but <0.2 μM are marked with “++.”)
23,"CN1CC2CC1CN2C(=O)C1CCN(c2c(F)cncc2NC(=O)c2c(N)nn3cc(F)cnc23)CC1 (stereo not drawn) [I-G-53, 2-amino-6-fluoro-N-(5-fluoro-4-(4-(5-methyl-2,5-diazabicyclo[2.2.1]heptane-2-carbonyl)piperidin-1-yl)pyridin-3-yl)pyrazolo[1,5-a]pyrimidine-3-carboxamide]",+++ (Compounds with a Cisplatin sensitization value of <0.02 μM are marked with “+++.”)
24,"CN(C)C(=O)C1CN(c2ccncc2NC(=O)c2c(N)nn3cc(F)cnc23)CCO1 (stereo not drawn) [I-N-234, 4-(3-(2-amino-6-fluoropyrazolo[1,5-a]pyrimidine-3-carboxamido)pyridin-4-yl)-N,N-dimethylmorpholine-2-carboxamide]",+ (Compounds with a Cisplatin sensitization value >0.2 μM but <5 μM are marked with “+.”)
25,"CN1CCN(c2c(F)cncc2NC(=O)c2c(N)nn3cc(CC#N)cnc23)CC1 [I-N-80, 2-amino-6-(cyanomethyl)-N-(5-fluoro-4-(4-methylpiperazin-1-yl)pyridin-3-yl)pyrazolo[1,5-a]pyrimidine-3-carboxamide]",++ (Compounds with a Cisplatin sensitization value >0.02 μM but <0.2 μM are marked with “++.”)
26,"CC(C)N1CCCC1C(=O)N1CCN(c2c(F)cncc2NC(=O)c2c(N)nn3cc(F)cnc23)CC1 (stereo not drawn) [I-N-205, 2-amino-6-fluoro-N-(5-fluoro-4-(4-(1-isopropylpyrrolidine-2-carbonyl)piperazin-1-yl)pyridin-3-yl)pyrazolo[1,5-a]pyrimidine-3-carboxamide]",++ (Compounds with a Cisplatin sensitization value >0.02 μM but <0.2 μM are marked with “++.”)
27,"COCCOc1ccncc1NC(=O)c1c(N)nn2cc(Cl)cnc12 [I-O-55, 2-amino-6-chloro-N-(4-(2-methoxyethoxy)pyridin-3-yl)pyrazolo[1,5-a]pyrimidine-3-carboxamide]",++ (Compounds with a Cisplatin sensitization value >0.02 μM but <0.2 μM are marked with “++.”)
